The values below come from patent publication US20240083857A1, “2-Methyl-Quinazolines” (Bayer Pharma Aktiengesellschaft, priority 2017, published 2024).

Like-named read-outs stand apart in the source and are kept apart here.

Assay [1] addresses human SOS1 (nucleotide exchange of K-Ras^G12C) (Homo sapiens, UniProt Q07889). The assay is described as follows: Biochemical assay 2: K-Ras^G12C activation assay by hSOS1 at high GTP concentration (HTRF). Particulars: for inhibition at 20 µM: read-out: Assay 2 (KRAS-Activation by SOS high GTP) activity expressed as % inhibition at 20 μM.
Assay [2] has as its target K-Ras^G12C : hSOS1 interaction (Homo sapiens, UniProt Q07889). The assay is described as follows: Biochemical assay 1: K-Ras^G12C interaction assay with hSOS1 (HTRF). It counts as binding. The following applies: for IC50: E-notation values, unit inferred, read-out: Assay 1 (KRAS-SOS interaction) IC50; for inhibition at 20 µM: read-out: Assay 1 (KRAS-SOS Interaction) activity expressed as % inhibition at 20 μM. On the technique in general: Time-resolved FRET reads energy transfer from a long-lived donor to a nearby acceptor.

[3] abbreviates: E-notation values, unit inferred, 50 μM GTP, read-out: Assay 2 (KRAS-Activation, high GTP) IC50.
Where [4] appears, read: high GTP, read-out: Assay 2 (KRAS-Activation by SOS high GTP) activity expressed as IC50.

Consider `COc1cc2nc(C)nc(NC(C)c3ccc(-c4ccccc4CN(C)C)s3)c2cc1OC` (single isomer, unassigned) [Example 390, N-[1-(5-{2-[(dimethylamino)methyl]phenyl}thiophen-2-yl)ethyl]-6,7-dimethoxy-2-methylquinazolin-4-amine], for which the values for the IC50 in assay [1] (setting [3]) and in assay [2] were 6.25 µM and 5 µM, respectively.

Turning to `COc1cc2nc(C)nc(NC(C)c3ccc(-c4ccccc4CN(C)C)s3)c2cc1OC` (single isomer, unassigned) [Example 391, N-[1-(5-{2-[(dimethylamino)methyl]phenyl}thiophen-2-yl)ethyl]-6,7-dimethoxy-2-methylquinazolin-4-amine], the IC50 (as a rule, the concentration needed to halve the response being measured) in assay [1] (setting [3]) came out at 0.0367 µM; in assay [2], 0.0155 µM.

In the case of `COc1cc2nc(C)nc(NC(C)c3ccc(=O)[nH]c3)c2cc1OC` (single isomer, unassigned; enantiomer 1) [Example 227, 5-{1-[(6,7-dimethoxy-2-methylquinazolin-4-yl)amino]ethyl}pyridin-2(1H)-one, Enantiomer 1], the inhibition (in general, how much of the control response was suppressed) at 20 µM in assay [1] (high GTP) was found to be 24%; in assay [2], 48%.

On to `COc1cc2nc(C)nc(NC(C)c3c(C)ccc4[nH]ncc34)c2cc1OC` (centres unmarked) [Example 7, 6,7-dimethoxy-2-methyl-N-[1-(5-methyl-1H-indazol-4-yl)ethyl]quinazolin-4-amine], for which the inhibition at 20 µM in assay [1] (high GTP) was 18%; in assay [2], 44%.

In the case of `COc1cc2nc(C)nc(NC(C)c3ccc(-n4ccc(CCO)n4)o3)c2cc1OC` (centres unmarked) [Example 226, 2-[1-(5-{1-[(6,7-dimethoxy-2-methylquinazolin-4-yl)amino]ethyl}furan-2-yl)-1H-pyrazol-3-yl]ethanol], the values for the inhibition at 20 µM in assay [1] (high GTP) and in assay [2] were 37% and 43%, respectively.

With `COc1cc2nc(C)nc(NC(C)c3ccc(C4=CCCC4)s3)c2cc1OC` (centres unmarked) [Example 231, N-{1-[5-(cyclopent-1-en-1-yl)thiophen-2-yl]ethyl}-6,7-dimethoxy-2-methylquinazolin-4-amine], the figures for the inhibition at 20 µM in assay [1] (high GTP) and in assay [2] were 53% and 56%, respectively.

Turning to `COc1cc2nc(C)nc(NC(C)c3ccc(-c4ccc(CNC(=O)OC(C)(C)C)o4)s3)c2cc1OC` (centres unmarked) [Example 236, tert-butyl {[5-(5-{1-[(6,7-dimethoxy-2-methylquinazolin-4-yl)amino]ethyl}thiophen-2-yl)furan-2-yl]methyl}carbamate], the IC50 in assay [1] (setting [4]) stood at 3.82 µM. The inhibition at 20 µM in assay [2] was found to be 37%.

As to `COC(=O)c1cc(-c2ccc(C(C)Nc3nc(C)nc4cc(OC)c(OC)cc34)s2)nn1C` (centres unmarked) [Example 237, methyl 3-(5-{1-[(6,7-dimethoxy-2-methylquinazolin-4-yl)amino]ethyl}thiophen-2-yl)-1-methyl-1H-pyrazole-5-carboxylate], the inhibition at 20 µM came out at 32% in assay [1] (high GTP) and 31% in assay [2].

As for `COc1cc2nc(C)nc(NC(C)c3ccc(-c4ccc(F)cc4CNC(=O)c4cc5ccccc5[nH]4)s3)c2cc1OC` (centres unmarked) [Example 296, N-[2-(5-{1-[(6,7-dimethoxy-2-methylquinazolin-4-yl)amino]ethyl}thiophen-2-yl)-5-fluorobenzyl]-1H-indole-2-carboxamide], the inhibition at 20 µM in assay [1] (high GTP) amounted to 48%; in assay [2], 34%.

Regarding `COc1cc2nc(C)nc(NC(C)c3ccc(-c4ccccc4CN4CCN(C(=O)OC(C)(C)C)CC4)s3)c2cc1OC` (centres unmarked) [Example 306, tert-butyl 4-[2-(5-{1-[(6,7-dimethoxy-2-methylquinazolin-4-yl)amino]ethyl}thiophen-2-yl)benzyl]piperazine-1-carboxylate], the IC50 in assay [1] (setting [4]) was 4.2 µM. In addition, the inhibition at 20 µM in assay [2] was 45%.

For the compound `COc1cc2nc(C)nc(NC(C)c3ccc(-c4ccccc4CNc4ccccc4)s3)c2cc1OC` (centres unmarked) [Example 362, 6,7-dimethoxy-2-methyl-N-[1-(5-{2-[(phenylamino)methyl]phenyl}thiophen-2-yl)ethyl]quinazolin-4-amine], the results for the inhibition at 20 µM in assay [1] (high GTP) and in assay [2] were 27% and 26%, respectively.

In the case of `COCCNCc1ccccc1-c1ccc(C(C)Nc2nc(C)nc3cc(OC)c(OC)cc23)s1` (centres unmarked) [Example 369, 6,7-dimethoxy-N-{1-[5-(2-{[(2-methoxyethyl)amino]methyl}phenyl)thiophen-2-yl]ethyl}-2-methylquinazolin-4-amine], the results for the concentration for half-maximal inhibition (IC50) in assay [1] (setting [3]) and in assay [2] were 0.152 µM and 0.0995 µM, respectively.

Turning to `COc1cc2nc(C)nc(NC(C)c3ccc(-c4ccccc4CNC4CC4)s3)c2cc1OC` (centres unmarked) [Example 370, N-[1-(5-{2-[(cyclopropylamino)methyl]phenyl}thiophen-2-yl)ethyl]-6,7-dimethoxy-2-methylquinazolin-4-amine], the half-inhibitory concentration (IC50) stood at 0.352 µM in assay [1] (setting [3]) and 0.27 µM in assay [2].

With `COC(=O)c1ccc2nc(C)nc(N[C@H](C)c3cccc(Cl)c3)c2c1` [Example 371, methyl 4-{[(1R)-1-(3-chlorophenyl)ethyl]amino}-2-methylquinazoline-6-carboxylate], the IC50 in assay [1] (setting [3]) stood at 2.42 µM; in assay [2] it was 1.89 µM.

In the case of `Cc1nc(N[C@H](C)c2cccc(Cl)c2)c2cc(CO)ccc2n1` [Example 373, (4-{[(1R)-1-(3-chlorophenyl)ethyl]amino}-2-methylquinazolin-6-yl)methanol], the IC50 was 6.2 µM in assay [1] (setting [3]) and 1.52 µM in assay [2].

Consider `COc1cc2nc(C)nc(NC(C)c3ccc(-c4ccccc4C(O)c4ccccc4)s3)c2cc1OC` (centres unmarked) [Example 374, [2-(5-{1-[(6,7-dimethoxy-2-methylquinazolin-4-yl)amino]ethyl}thiophen-2-yl)-phenyl](phenyl)methanol], for which the figures for the half-maximal inhibitory concentration (IC50) in assay [1] (setting [3]) and in assay [2] were 2.55 µM and 1.6 µM, respectively.

Regarding `COc1cc2nc(C)nc(NC(C)c3ccc(-c4ccccc4C(O)Cc4ccccc4)s3)c2cc1OC` (centres unmarked) [Example 376, 1-[2-(5-{1-[(6,7-dimethoxy-2-methylquinazolin-4-yl)amino]ethyl}thiophen-2-yl)phenyl]-2-phenylethanol], the IC50 in assay [1] (setting [3]) amounted to 18.4 µM; in assay [2], 5.46 µM.

As to `CCCCC(O)c1ccccc1-c1ccc(C(C)Nc2nc(C)nc3cc(OC)c(OC)cc23)s1` (centres unmarked) [Example 377, 1-[2-(5-{1-[(6,7-dimethoxy-2-methylquinazolin-4-yl)amino]ethyl}thiophen-2-yl)phenyl]pentan-1-ol], the IC50 in assay [1] (setting [3]) amounted to 9.75 µM; in assay [2], 5.14 µM.

For the compound `C#CC(O)c1ccccc1-c1ccc(C(C)Nc2nc(C)nc3cc(OC)c(OC)cc23)s1` (centres unmarked) [Example 378, 1-[2-(5-{1-[(6,7-dimethoxy-2-methylquinazolin-4-yl)amino]ethyl}thiophen-2-yl)phenyl]prop-2-yn-1-ol], the IC50 in assay [1] (setting [3]) turned out to be 1.05 µM; in assay [2], 0.43 µM.

Take `COc1cc2nc(C)nc(NC(C)c3ccc(-c4ccccc4C(O)C(C)C)s3)c2cc1OC` (centres unmarked) [Example 379, 1-[2-(5-{1-[(6,7-dimethoxy-2-methylquinazolin-4-yl)amino]ethyl}thiophen-2-yl)phenyl]-2-methylpropan-1-ol]: the half-inhibitory concentration (IC50) in assay [1] (setting [3]) came out at 1.35 µM; in assay [2], 0.568 µM.

With `COc1cc2nc(C)nc(NC(C)c3ccc(-c4ccccc4C(O)C(F)(F)F)s3)c2cc1OC` (centres unmarked) [Example 380, 1-[2-(5-{1-[(6,7-dimethoxy-2-methylquinazolin-4-yl)amino]ethyl}thiophen-2-yl)phenyl]-2,2,2-trifluoroethanol], the half-maximal inhibitory concentration (IC50) in assay [1] (setting [3]) came to 1.6 µM; in assay [2], 0.937 µM.

For `COc1cc2nc(C)nc(NC(C)c3cc(C)c(-c4cnc5n4CCC5)s3)c2cc1OC` (centres unmarked) [Example 381, N-{1-[5-(6,7-dihydro-5H-pyrrolo[1,2-a]imidazol-3-yl)-4-methylthiophen-2-yl]ethyl}-6,7-dimethoxy-2-methylquinazolin-4-amine], the IC50 in assay [1] (setting [3]) worked out at 1.9 µM; in assay [2], 0.49 µM.

As to `COc1cc2nc(C)nc(NC(C)c3ccc(-c4ccc(F)cc4CNC(=O)CO)s3)c2cc1OC` (centres unmarked) [Example 382, N-[2-(5-{1-[(6,7-dimethoxy-2-methylquinazolin-4-yl)amino]ethyl}thiophen-2-yl)-5-fluorobenzyl]-2-hydroxyacetamide], the IC50 in assay [1] (setting [3]) worked out at 0.931 µM; in assay [2], 0.253 µM.

As for `COCC(=O)NCc1cc(F)ccc1-c1ccc(C(C)Nc2nc(C)nc3cc(OC)c(OC)cc23)s1` (centres unmarked) [Example 383, N-[2-(5-{1-[(6,7-dimethoxy-2-methylquinazolin-4-yl)amino]ethyl}thiophen-2-yl)-5-fluorobenzyl]-2-methoxyacetamide], the concentration for half-maximal inhibition (IC50) in assay [1] (setting [3]) was 3.62 µM; in assay [2] it was 0.984 µM.

In the case of `COc1cc2nc(C)nc(NC(C)c3ccc(-c4cc(Cl)ccc4CNC(=O)OC(C)(C)C)s3)c2cc1OC` (centres unmarked) [Example 387, tert-butyl [4-chloro-2-(5-{1-[(6,7-dimethoxy-2-methylquinazolin-4-yl)amino]ethyl}-thiophen-2-yl)benzyl]carbamate], the IC50 was found to be 1.66 µM in assay [1] (setting [3]) and 1.17 µM in assay [2].

`COc1cc2nc(C)nc(N[C@H](C)c3cccc(-c4ccnc(O)c4)c3)c2cc1OC` [Example 388, 4-(3-{(1R)-1-[(6,7-dimethoxy-2-methylquinazolin-4-yl)amino]ethyl}phenyl)pyridin-2-ol]: the IC50 was 0.801 µM in assay [1] (setting [3]) and 0.205 µM in assay [2].

Turning to `COc1cc2nc(C)nc(NC(C)c3cccc(OCc4ccccc4)c3)c2cc1OC` (centres unmarked) [Example 389, N-{1-[3-(benzyloxy)phenyl]ethyl}-6,7-dimethoxy-2-methylquinazolin-4-amine], the IC50 was found to be 14.9 µM in assay [1] (setting [3]) and 6.69 µM in assay [2].

With `Cc1nc(N[C@H](C)c2cccc(Cl)c2)c2cc(C(C)(C)O)ccc2n1` [Example 392, 2-(4-{[(1R)-1-(3-chlorophenyl)ethyl]amino}-2-methylquinazolin-6-yl)propan-2-ol], the IC50 came out at 1.19 µM in assay [1] (setting [3]) and 0.338 µM in assay [2].
